Literature values in patent publication US11291658B2, “Use of gaboxadol in the treatment of diabetes and related conditions” (Ovid Therapeutics Inc., priority 2017, dated 2022).

Tests used:
[1] = tested on: streptozotocin-induced diabetic rats with moderate to severe hyperglycemia; conditions: Gomez et al. 1999
[2] = treatment of insomnia, three-month efficacy study
[3] = patients with a history of drug abuse who received gaboxadol

In the case of `Oc1noc2c1CCNC2` [gaboxadol, 4,5,6,7-tetrahydroisoxazolo [5,4-c]pyridine-3-ol], the hypoglycemic effect [1] is listed as “very mild and could only be seen in the moderately hyperglycemic rats”, the “effects in sleep onset and sleep maintenance” value [2] is listed as “failed to show significant effects” and the psychiatric adverse events [3] is listed as “steep increase in psychiatric adverse events”.
